In test [1] the target is T1, SARS-CoV-2 PLpro (nsp3 1564–1878) (Severe acute respiratory syndrome coronavirus 2, UniProt P0DTD1). The test can be described thus: biochemical. Also on record: FRET-quenched peptide (Pro3) cleavage by PLpro, 10 min pre-incubation, slope over 20 min, normalised to no-compound control. The following applies: read-out: % of control remaining.
For test [2], the target named is T1, SARS-CoV-2 PLpro (nsp3 1564–1878). The test can be described thus: biochemical. Also on record: FRET-quenched peptide (Pro3) cleavage by PLpro, 10 min pre-incubation, slope over 20 min, normalised to no-compound control. The following applies: read-out: % of control remaining. This is another data set of the same source.

SMILES strings stand for the structures. Counter-ions that a name gives are not always drawn. Like-named read-outs stand apart in the source and are kept apart here.

Here are results for 30 molecules from article PMC8286840, “Identifying SARS-CoV-2 antiviral compounds by screening for small molecule inhibitors of Nsp3 papain-like protease” (Biochemical Journal, 2021).

On to `CC(C)(C)[C@]1(O)C[C@@H]2OC(=O)C[C@@]23C(=O)O[C@@H]2OC(=O)[C@H](O)[C@]213` [Bilobalide], for which the remaining activity at 3.75 µM in test [1] (Well no.=3091, high concentration screen) is 105%. Moreover, the remaining activity at 1.25 µM in test [2] (Well no.=3091, low concentration screen) came to 105%.
With `NC(=O)CC[C@@H](N)C(=O)O` [D-glutamine], the remaining activity at 3.75 µM in test [1] (Well no.=4996, high concentration screen) turned out to be 99.6%. In test [2] (Well no.=4996, low concentration screen), the remaining activity at 1.25 µM was 98.2%.
`CCCCCCCCCCCCCCCC(=O)OC[C@H](O)[C@H]1OC(=O)C(O)=C1O` [Ascorbyl palmitate]: the remaining activity at 3.75 µM in test [1] (Well no.=4041, high concentration screen) was 105%. The remaining activity at 1.25 µM in test [2] (Well no.=4041, low concentration screen) turned out to be 102%.
Consider `C=CCCCCCCCCC(=O)O` [10-Undecenoic acid], for which, in test [1] (Well no.=4254, high concentration screen), the remaining activity at 3.75 µM came out at 91.9%. Also, the remaining activity at 1.25 µM in test [2] (Well no.=4254, low concentration screen) was 99%.
Regarding `c1ccc(/N=N/c2ccccc2)cc1` [Azobenzene], in test [1] (Well no.=8080, high concentration screen), the remaining activity at 3.75 µM came out at 101%. Further, the remaining activity at 1.25 µM in test [2] (Well no.=8080, low concentration screen) was determined as 102%.
In the case of `O=C(Nc1cc(C(F)(F)F)cc(C(F)(F)F)c1)c1cc(Cl)ccc1O` [IMD 0354 - N-[3,5-Bis(trifluoromethyl)phenyl]-5-chloro-2-hydroxybenzamide], in test [1] (Well no.=2586, high concentration screen), the remaining activity at 3.75 µM was 82.3%. Besides, in test [2] (Well no.=2586, low concentration screen), the remaining activity at 1.25 µM worked out at 86.3%.
For `Cc1ccc(C(=O)Nc2ccc(CN3CCN(C)CC3)c(C(F)(F)F)c2)cc1C#Cc1cnc2cccnn12` [Ponatinib (AP24534)], the remaining activity at 3.75 µM in test [1] (Well no.=4913, high concentration screen) was determined as 95.4%. Also, the remaining activity at 1.25 µM in test [2] (Well no.=4913, low concentration screen) is 98.1%.
Regarding `O=C(O[C@H]1C[C@H]2CC[C@@H](C1)[N+]21CCCC1)C(O)(c1ccccc1)c1ccccc1` [Trospium chloride (Sanctura)], the remaining activity at 3.75 µM in test [1] (Well no.=4916, high concentration screen) was found to be 90.4%. Moreover, the remaining activity at 1.25 µM in test [2] (Well no.=4916, low concentration screen) stood at 97.3%.
As to `Oc1ccc2ccccc2c1` [2-Naphthol], in test [1] (Well no.=7155, high concentration screen), the remaining activity at 3.75 µM worked out at 99.5%. In addition, in test [2] (Well no.=7155, low concentration screen), the remaining activity at 1.25 µM amounted to 103%.
As to `CCn1cc(-c2ccnc3[nH]c(-c4cccc(CN(C)C)c4)cc23)c(-c2ccc(NC(=O)N(C)C)cc2)n1` [GSK1070916], in test [1] (Well no.=5031, high concentration screen), the remaining activity at 3.75 µM amounted to 99.8%. The remaining activity at 1.25 µM in test [2] (Well no.=5031, low concentration screen) turned out to be 101%.
On to `CN(C)CCC(c1ccc(Cl)cc1)c1ccccn1` (stereo not shown) [Chlorpheniramine], for which, in test [1] (Well no.=2229, high concentration screen), the remaining activity at 3.75 µM was 95.1%. Moreover, in test [2] (Well no.=2229, low concentration screen), the remaining activity at 1.25 µM stood at 93.7%.
As to `CCCCC[C@H](O)/C=C/C=C\C=C\[C@@H](O)C/C=C\CCCC(=O)O` [8(S),15(S)-DIHETE], in test [1] (Well no.=4371, high concentration screen), the remaining activity at 3.75 µM came out at 99.4%. For the same molecule, the remaining activity at 1.25 µM in test [2] (Well no.=4371, low concentration screen) amounted to 102%.
`CC(N)=NCCC[C@H](N)C(=O)O` [L-N5-(1-Iminoethyl)ornithine hydrochloride]: the remaining activity at 3.75 µM in test [1] (Well no.=967, high concentration screen) came out at 101%. Moreover, the remaining activity at 1.25 µM in test [2] (Well no.=967, low concentration screen) was found to be 101%.
In the case of `O=C(/C=C/c1ccc(O)cc1)CC(=O)/C=C/c1ccc(O)cc1` [bis-demethoxycurcumin], in test [1] (Well no.=4089, high concentration screen), the remaining activity at 3.75 µM was found to be 101%. In addition, the remaining activity at 1.25 µM in test [2] (Well no.=4089, low concentration screen) was found to be 98.7%.
With `NS(=O)(=O)c1cc(C(=O)O)c(NCc2ccco2)cc1Cl` [Furosemide], the remaining activity at 3.75 µM is 94.4% in test [1] (Well no.=659, high concentration screen); 99.5% in test [1] (Well no.=2166, high concentration screen); 102% in test [1] (Well no.=7462, high concentration screen). Besides, the remaining activity at 1.25 µM was 92.2% in test [2] (Well no.=659, low concentration screen); 101% in test [2] (Well no.=2166, low concentration screen); 102% in test [2] (Well no.=7462, low concentration screen).
For the molecule `CCCC[S+]([O-])c1sc2nc(-c3cccs3)cc(-c3ccccc3)c2c1N` (stereo not shown) [SW033291], the remaining activity at 3.75 µM in test [1] (Well no.=8674, high concentration screen) is 97.5%. Moreover, in test [2] (Well no.=8674, low concentration screen), the remaining activity at 1.25 µM is 101%.
Turning to `CCn1cc(C(=O)O)c(=O)c2ccc(C)nc21` [Nalidixic acid sodium], the remaining activity at 3.75 µM in test [1] (Well no.=951, high concentration screen) is 102%. In addition, in test [2] (Well no.=951, low concentration screen), the remaining activity at 1.25 µM was 101%.
For `C[C@@]12C[C@@]3(O)O[C@@H](O1)[C@]1(COC(=O)c4ccccc4)[C@H]3C[C@@]12O[C@@H]1O[C@H](COC(=O)c2ccccc2)[C@@H](O)[C@H](O)[C@H]1O` [Benzoylpaeoniflorin], the remaining activity at 3.75 µM in test [1] (Well no.=6394, high concentration screen) amounted to 98.2%. The remaining activity at 1.25 µM in test [2] (Well no.=6394, low concentration screen) came out at 101%.
As to `O=C(O)Cn1c2c(c3cc(F)ccc31)CN(C(=O)c1cccc3ccccc13)CC2` [Setipiprant], the remaining activity at 3.75 µM in test [1] (Well no.=7707, high concentration screen) was determined as 103%. For the same molecule, the remaining activity at 1.25 µM in test [2] (Well no.=7707, low concentration screen) came out at 99.9%.
Regarding `CN(C)C(=N)NC(=N)N` [Metformin HCl], the remaining activity at 3.75 µM in test [1] (Well no.=8430, high concentration screen) was determined as 94.9%. In test [2] (Well no.=8430, low concentration screen), the remaining activity at 1.25 µM is 94.8%.
`CN1C[C@H](CO)C[C@@H]2c3cccc4[nH]cc(c34)C[C@H]21` [9,10-Dihydrolysergol]: in test [1] (Well no.=3468, high concentration screen), the remaining activity at 3.75 µM worked out at 109%. In addition, in test [2] (Well no.=3468, low concentration screen), the remaining activity at 1.25 µM was determined as 108%.
As for `C[C@H]1C[C@@H]2[C@H]([C@@H](O)C[C@@]3(C)[C@H]2CC[C@]3(O)C(=O)CO)[C@@]2(C)C=CC(=O)C=C12` [Methylprednisolone], the remaining activity at 3.75 µM turned out to be 99.7% in test [1] (Well no.=1957, high concentration screen) and 95.1% in test [1] (Well no.=6179, high concentration screen). Moreover, the remaining activity at 1.25 µM in test [2] (Well no.=1957, low concentration screen) was found to be 100%; in test [2] (Well no.=6179, low concentration screen) it was 95.4%.
In the case of `Cc1cn([C@H]2C[C@H](O)[C@@H](CO)O2)c(=O)[nH]c1=O` [Thymidine], the remaining activity at 3.75 µM in test [1] (Well no.=7349, high concentration screen) stood at 106%; in test [1] (Well no.=7770, high concentration screen), 97.4%. In addition, the remaining activity at 1.25 µM was found to be 104% in test [2] (Well no.=7349, low concentration screen) and 94.3% in test [2] (Well no.=7770, low concentration screen).
Take `CC(=O)NBr` [N-Bromoacetamide]: the remaining activity at 3.75 µM in test [1] (Well no.=171, high concentration screen) amounted to 98.1%. Besides, the remaining activity at 1.25 µM in test [2] (Well no.=171, low concentration screen) is 101%.
As for `COc1cccc(-c2ccc(NC(=O)C3=C(C(=O)O)CCC3)c(F)c2)c1` [Vidofludimus], the remaining activity at 3.75 µM in test [1] (Well no.=8524, high concentration screen) worked out at 96.6%. Further, the remaining activity at 1.25 µM in test [2] (Well no.=8524, low concentration screen) was 99.5%.
`CCOC(=O)O[C@]1(C(=O)OCCl)CC[C@H]2[C@@H]3CCC4=CC(=O)C=C[C@]4(C)[C@H]3[C@@H](O)C[C@@]21C` [Loteprednol Etabonate]: the remaining activity at 3.75 µM is 103% in test [1] (Well no.=4618, high concentration screen) and 97.6% in test [1] (Well no.=6459, high concentration screen). Moreover, the remaining activity at 1.25 µM in test [2] (Well no.=4618, low concentration screen) stood at 98%; in test [2] (Well no.=6459, low concentration screen), 99.9%.
Consider `C[C@H](NC(=O)CNC(=O)c1cccc(Cl)c1)c1ccccc1` [JNJ-63533054], for which the remaining activity at 3.75 µM in test [1] (Well no.=8047, high concentration screen) stood at 102%. Further, the remaining activity at 1.25 µM in test [2] (Well no.=8047, low concentration screen) was determined as 98.3%.
`CC(=O)NC[C@H]1CN(c2ccc(N3CCOCC3)c(F)c2)C(=O)O1` [Linezolid]: in test [1] (Well no.=1782, high concentration screen), the remaining activity at 3.75 µM turned out to be 98.8%. The remaining activity at 1.25 µM in test [2] (Well no.=1782, low concentration screen) turned out to be 102%.
On to `Cc1ccc(S(=O)(=O)Cc2nc(-c3ccc(C(=O)NCc4cccnc4)cc3)oc2C)cc1` [STF-118804], for which, in test [1] (Well no.=5552, high concentration screen), the remaining activity at 3.75 µM is 91.7%. Also, the remaining activity at 1.25 µM in test [2] (Well no.=5552, low concentration screen) was found to be 90.7%.
Turning to `C=C(C)[C@@H]1[C@H]2OC(=O)[C@@H]1[C@]1(O)C[C@H]3O[C@]34C(=O)O[C@H]2[C@]14C` [Picrotoxinin], the remaining activity at 3.75 µM in test [1] was 101%. For the same molecule, the remaining activity at 1.25 µM in test [2] is 101%.
